Legend:
[1] = system: cocklebur; assay: Test B pre-/postemergence herbicide test; assay type: in vivo, Xanthium strumarium
Outline: (§1)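 Evaluation is visual, comparing treated with control plants on a scale where 0 means no effect and 100 means full control. Treatments were preemergence, or postemergence on seedlings 2–18 cm tall, and held 13–15 days in the greenhouse.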

[2] = system: ducksalad; assay: Test C flooded paddy test; assay type: in vivo, Heteranthera limosa; conditions: for Plant response rating, Ducksalad: 500 g ai/ha, visual rating after 12 to 14 days
[3] = system: rice; assay: Test B flooded paddy test; assay type: in vivo, Oryza sativa; conditions: 1000 g ai/ha, scale 0 to 100 (0 no effect, 100 complete control)
Outline: (§2)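 Each value is a visual 0–100 response rating taken against controls 13 to 15 days after treatment in the greenhouse. Plants received formulated chemical postemergence at the 1- to 4-leaf stage or, in flooded paddy, at the 2-leaf stage.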

[4] = system: lambsquarters; assay: Test B pre-/postemergence herbicide test; assay type: in vivo, Chenopodium album
Outline: as §1

[5] = system: smallflower umbrella sedge; assay: Test C flooded paddy test; assay type: in vivo, Cyperus difformis; conditions: for Plant response rating, Sedge, Umbrella: 500 g ai/ha, visual rating after 12 to 14 days
[6] = system: corn; assay: Test B pre-/postemergence herbicide test; assay type: in vivo, Zea mays
Outline: as §1

[7] = system: barnyardgrass; assay: Test B flooded paddy test; assay type: in vivo, Echinochloa crus-galli; conditions: 1000 g ai/ha, scale 0 to 100 (0 no effect, 100 complete control)
Outline: as §2

[8] = system: giant foxtail; assay: Test B pre-/postemergence herbicide test; assay type: in vivo, Setaria faberi
Outline: as §1

[9] = system: large crabgrass; assay: Test B pre-/postemergence herbicide test; assay type: in vivo, Digitaria sanguinalis
Outline: as §1

[10] = system: wild oat; assay: Test B postemergence herbicide test; assay type: in vivo, Avena fatua; conditions: postemergence
Outline: (§3)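 Greenhouse test; postemergence application to plants at 1–4 leaves (2–18 cm); paddy species at 2 leaves; evaluated visually vs controls at 13–15 days; scale 0–100 (100 = complete control).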

[11] = system: rice; assay: Test B pre-/postemergence herbicide test; assay type: in vivo, Oryza sativa; conditions: preemergence; for Plant response rating, Rice: 500 g ai/ha
Outline: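 Plants compared with untreated controls 13–15 days post-treatment and given a visual 0–100 injury score. Applications: preemergence to seeds; postemergence at 1- to 4-leaf (2–18 cm); paddy species flooded, 2-leaf stage. Vehicle non-phytotoxic, surfactant included.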

[12] = system: wheat; assay: Test B postemergence herbicide test; assay type: in vivo, Triticum aestivum; parameters: key to Wheat plant response rating: 0 = no effect, 100 = complete control; conditions: postemergence
Outline: as §3

[13] = system: small flower umbrella sedge; assay: Test B flooded paddy test; assay type: in vivo, Cyperus difformis; conditions: 1000 g ai/ha, scale 0 to 100 (0 no effect, 100 complete control)
Outline: as §2

[14] = system: blackgrass; assay: Test B postemergence herbicide test; assay type: in vivo, Alopecurus myosuroides; conditions: postemergence
Outline: as §2

[15] = system: barnyardgrass; assay: Test B pre-/postemergence herbicide test; assay type: in vivo, Echinochloa crus-galli
Outline: as §1

[16] = system: Surinam grass; assay: Test B pre-/postemergence herbicide test; assay type: in vivo, Urochloa decumbens
Outline: as §1

[17] = system: ducksalad; assay: Test B flooded paddy test; assay type: in vivo, Heteranthera limosa; conditions: 1000 g ai/ha, scale 0 to 100 (0 no effect, 100 complete control)
Outline: as §2

[18] = system: morningglory; assay: Test B pre-/postemergence herbicide test; assay type: in vivo, Ipomoea coccinea
Outline: as §1

[19] = system: rice; assay: Test C flooded paddy test; assay type: in vivo, Oryza sativa; conditions: for Plant response rating, Rice: 500 g ai/ha, visual rating after 12 to 14 days
Outline: (§4)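 Plants were grown to the 1- to 4-leaf stage (2–18 cm) and then treated postemergence, or grown to the 2-leaf stage for the flooded paddy test. They were held in a greenhouse for 12 to 14 days and then scored by eye against controls, where 0 is no effect and 100 is complete control.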

[20] = system: barnyardgrass; assay: Test C flooded paddy test; assay type: in vivo, Echinochloa crus-galli; conditions: for Plant response rating, Barnyardgrass: 500 g ai/ha, visual rating after 12 to 14 days
Outline: as §4

[21] = system: velvetleaf; assay: Test B pre-/postemergence herbicide test; assay type: in vivo, Abutilon theophrasti
Outline: as §1

[22] = system: pigweed; assay: Test B pre-/postemergence herbicide test; assay type: in vivo, Amaranthus retroflexus
Outline: as §1

[23] = 125 g ai/ha; 0 is no effect, 100 is complete control; preemergence
[24] = 125 g ai/ha; visual rating, scale 0 (no effect) to 100 (complete control); postemergence
[25] = 500 g ai/ha; visual rating, 0 = no effect, 100 = complete control; preemergence
[26] = postemergence, 500 g ai/ha; scale 0 to 100, 0 is no effect, 100 is complete control
[27] = 125 g ai/ha, scale 0 to 100 (0 no effect, 100 complete control)
[28] = 250 g ai/ha, scale of 0 to 100, 0 is no effect, 100 is complete control
[29] = scale 0 to 100 (0 no effect, 100 complete control)
[30] = 125 g ai/ha, visual rating, scale 0 (no effect) to 100 (complete control)
[31] = 500 g ai/ha, scale 0 to 100, 0 is no effect, 100 is complete control
[32] = 62 g ai/ha, scale 0 to 100 (0 no effect, 100 complete control)
[33] = 500 g ai/ha; visual rating 0-100, 0 no effect, 100 complete control; preemergence
[34] = postemergence, 125 g ai/ha; visual rating, scale 0 (no effect) to 100 (complete control)
[35] = postemergence, 500 g ai/ha; visual rating, scale 0 (no effect) to 100 (complete control)
[36] = preemergence, 125 g ai/ha; 0 to 100 scale, 0 is no effect, 100 is complete control

CCN1N=C(C(C)(C)C)CC1C(=O)Nc1cc(C(=O)N2CCCCC2)ccc1F (racemic) [Compound 331]
Plant response rating (0 to 100 scale), Cocklebur [1, 23]: 0
Cocklebur plant response rating [1, 24]: 10
Plant response rating, Cocklebur [1, 25]: 0
Cocklebur plant response rating [1, 26]: 30
Ducksalad plant response rating ([2]; 62 g ai/ha, scale 0 to 100): 0
Ducksalad plant response rating [2, 27]: 50
Ducksalad plant response rating [2, 28]: 65
Plant response rating, Ducksalad [2, 29]: 85
Rice plant response rating [3]: 60
Lambsquarters plant response rating [4, 24]: 60
Plant response rating, Lambsquarters [4, 25]: 100
Lambsquarters plant response rating [4, 26]: 70
Sedge, Umbrella plant response rating ([5]; 62 g ai/ha, scale 0 to 100): 0
Sedge, Umbrella plant response rating [5, 27]: 20
Sedge, Umbrella plant response rating [5, 28]: 25
Plant response rating, Sedge, Umbrella [5, 29]: 65
Plant response rating (0 to 100 scale), Corn [6, 23]: 20
Corn plant response rating [6, 24]: 0
Plant response rating, Corn [6, 25]: 40
Corn plant response rating [6, 26]: 0
Barnyardgrass plant response rating [7]: 80
Plant response rating (0 to 100 scale), Foxtail, Giant [8, 23]: 20
Foxtail, Giant plant response rating [8, 24]: 0
Plant response rating, Foxtail, Giant [8, 25]: 80
Foxtail, Giant plant response rating [8, 26]: 30
Plant response rating (0 to 100 scale), Crabgrass, Large [9, 23]: 60
Crabgrass, Large plant response rating [9, 24]: 10
Plant response rating, Crabgrass, Large [9, 25]: 80
Crabgrass, Large plant response rating [9, 26]: 10
Oat, Wild plant response rating [10, 30]: 10
Oat, Wild plant response rating [10, 31]: 30
Plant response rating (0 to 100 scale), Rice ([11]; 125 g ai/ha, 0 is no effect, 100 is complete control): 30
Plant response rating, Rice ([11]; visual rating, 0 = no effect, 100 = complete control): 40
Wheat plant response rating [12, 30]: 20
Wheat plant response rating [12, 31]: 20
Sedge, Umbrella plant response rating [13]: 90
Blackgrass plant response rating [14, 30]: 10
Blackgrass plant response rating [14, 31]: 20
Plant response rating (0 to 100 scale), Barnyardgrass [15, 23]: 60
Barnyardgrass plant response rating [15, 24]: 10
Plant response rating, Barnyardgrass [15, 25]: 70
Barnyardgrass plant response rating [15, 26]: 20
Plant response rating (0 to 100 scale), Surinam Grass [16, 23]: 40
Surinam Grass plant response rating [16, 24]: 10
Plant response rating, Surinam Grass [16, 25]: 60
Surinam Grass plant response rating [16, 26]: 20
Ducksalad plant response rating [17]: 90
Plant response rating (0 to 100 scale), Morningglory [18, 23]: 0
Morningglory plant response rating [18, 24]: 0
Plant response rating, Morningglory [18, 25]: 0
Morningglory plant response rating [18, 26]: 10
Rice plant response rating ([19]; 62 g ai/ha, scale 0 to 100): 0
Rice plant response rating [19, 27]: 15
Rice plant response rating [19, 28]: 50
Plant response rating, Rice [19, 29]: 65
Barnyardgrass plant response rating [20, 32]: 0
Barnyardgrass plant response rating [20, 27]: 10
Barnyardgrass plant response rating [20, 28]: 40
Plant response rating, Barnyardgrass [20, 29]: 65
Plant response rating (0 to 100 scale), Velvetleaf [21, 23]: 20
Velvetleaf plant response rating [21, 24]: 10
Plant response rating, Velvetleaf [21, 25]: 80
Velvetleaf plant response rating [21, 26]: 20
Plant response rating (0 to 100 scale), Pigweed [22, 23]: 40
Pigweed plant response rating [22, 24]: 10
Plant response rating, Pigweed [22, 25]: 50
Pigweed plant response rating [22, 26]: 50

C=CCN(C)C(=O)c1ccnc(NC(=O)c2cc(C(C)(C)C)nn2CC)c1 [Compound 159]
Plant response rating, Cocklebur [1, 33]: 100
Cocklebur plant response rating [1, 34]: 80
Cocklebur plant response rating [1, 35]: 80
Plant response rating, Cocklebur [1, 36]: 90
Ducksalad plant response rating [2, 32]: 80
Ducksalad plant response rating [2, 27]: 90
Ducksalad plant response rating [2, 28]: 90
Plant response rating, Ducksalad [2, 29]: 100
Rice plant response rating ([3]; visual rating, 13 to 15 days): 60
Plant response rating, Lambsquarters [4, 33]: 100
Lambsquarters plant response rating [4, 34]: 90
Lambsquarters plant response rating [4, 35]: 90
Plant response rating, Lambsquarters [4, 36]: 100
Sedge, Umbrella plant response rating [5, 32]: 10
Sedge, Umbrella plant response rating [5, 27]: 40
Sedge, Umbrella plant response rating [5, 28]: 60
Plant response rating, Sedge, Umbrella [5, 29]: 80
Plant response rating, Corn [6, 33]: 0
Corn plant response rating [6, 34]: 0
Corn plant response rating [6, 35]: 0
Plant response rating, Corn [6, 36]: 0
Barnyardgrass plant response rating ([7]; visual rating, 13 to 15 days): 80
Plant response rating, Foxtail, Giant [8, 33]: 60
Foxtail, Giant plant response rating [8, 34]: 40
Foxtail, Giant plant response rating [8, 35]: 50
Plant response rating, Foxtail, Giant [8, 36]: 50
Plant response rating, Crabgrass, Large [9, 33]: 70
Crabgrass, Large plant response rating [9, 34]: 0
Crabgrass, Large plant response rating [9, 35]: 0
Plant response rating, Crabgrass, Large [9, 36]: 40
Plant response rating, Rice ([11]; visual rating 0-100, 0 no effect, 100 complete control): 70
Sedge, Umbrella plant response rating ([13]; visual rating, 13 to 15 days): 70
Plant response rating, Barnyardgrass [15, 33]: 90
Barnyardgrass plant response rating [15, 34]: 0
Barnyardgrass plant response rating [15, 35]: 0
Plant response rating, Barnyardgrass [15, 36]: 70
Plant response rating, Surinam Grass [16, 33]: 70
Surinam Grass plant response rating [16, 34]: 0
Surinam Grass plant response rating [16, 35]: 20
Plant response rating, Surinam Grass [16, 36]: 60
Ducksalad plant response rating ([17]; visual rating, 13 to 15 days): 90
Plant response rating, Morningglory [18, 33]: 40
Morningglory plant response rating [18, 34]: 10
Morningglory plant response rating [18, 35]: 10
Plant response rating, Morningglory [18, 36]: 30
Rice plant response rating [19, 32]: 60
Rice plant response rating [19, 27]: 60
Rice plant response rating [19, 28]: 80
Plant response rating, Rice [19, 29]: 90
Barnyardgrass plant response rating [20, 32]: 30
Barnyardgrass plant response rating ([20]; 125 g ai/ha, scale of 0 to 100, 0 is no effect, 100 is complete control): 50
Barnyardgrass plant response rating [20, 28]: 70
Plant response rating, Barnyardgrass [20, 29]: 80
Plant response rating, Velvetleaf [21, 33]: 90
Velvetleaf plant response rating [21, 34]: 20
Velvetleaf plant response rating [21, 35]: 70
Plant response rating, Velvetleaf [21, 36]: 80
Plant response rating, Pigweed [22, 33]: 100
Pigweed plant response rating [22, 34]: 80
Pigweed plant response rating [22, 35]: 80
Plant response rating, Pigweed [22, 36]: 100
